Results published in a melting point compilation (Tetko et al.; mined from patent text by program, amines drawn as free bases though some values may be those of a salt).
Residues, ends and D or L forms follow the SMILES beside them. *: point of attachment. Boc = CC(C)(C)OC(=O)*

| Structure (SMILES) | melting point [°C] |
| --- | --- |
| CC(C)c1ccc(N(C)C(=O)Cn2cnc3c2c(=O)n(C)c(=O)n3C)cc1 | 231 to 233 |
| CC(C)C[C@H](NC(=O)OC(C)(C)C)[C@@H](O)CC(=O)NN1CCN(c2cccc(C(F)(F)F)c2)CC1 | 107 to 109 |
| CC(C)OP(=O)(OC(C)C)c1nc(N)nc(N)n1 | > 400 |
| O=[N+]([O-])c1cccc(/C=C/c2nc(C3CCCCCCC3)cs2)c1 | 64 to 65 |
| Cc1nc2cc(NC(=O)c3cc4cccnc4n3Cc3ccncc3)ccc2s1 | 211 to 236 |
| CC1(C)CC2(CC(C)(C)N1)OC1(CCCCCCCCCCC1)NC2=O | 97 |
| O=C(O)CC1(CS)CC1 | 42 to 45 |
| COc1cc2nc(C(=O)Nc3cc(C)cc(C)n3)[nH]c2cc1OC | 256 |
| CCCCCCCCCCCCS(=O)(=O)CCOc1ccc(C/C=C(\OC(C)=O)C(F)(F)F)cc1 | 48 to 49 |
| C#CC1(O)CCN(C(C)=O)CC1 | 132 to 134 |
| CS(=O)(=O)NC1Cc2ccc(C(=O)CCCCCl)cc2C1 (stereo unspecified) | 71 to 72 |
| Cc1nc2n(C)nc(C)n2c(=O)c1CCO | 170 |
| CCOC(=O)CC(C)Nc1ccc(OC)c(OC)c1 (stereo unspecified) | 59 to 60 |
| CCCc1nn(C)c2c(=S)[nH]c(-c3cc(S(=O)(=O)N4C[C@@H](C)N[C@@H](C)C4)ccc3OCC)nc12 | 196 to 199 |
| O=C1c2cc([N+](=O)[O-])cc3cc([N+](=O)[O-])cc(c23)C(=O)N1O | 317 to 320 |
| CC(=O)c1ccc(OCC(O)CCCl)cc1 (stereo unspecified) | 75 to 77 |
| COC(=O)c1nc(-c2cc(OC)c(Cl)cc2F)cc(NC(C)=O)c1Cl | 180 to 182 |

| Structure (SMILES) | melting point [°C] |
| --- | --- |
| Clc1ccc(C#Cc2ccc(Br)cc2)cc1 | 179 |
| CSc1cc(C)nc(SC)c1NC(=O)CCCCCCCCSc1nc2ccccc2s1 | 126 to 127 |
| CCOC(=O)CCc1ccc(N[C@@H](CCC(N)=O)C(=O)O)cc1 | 180 to 181 |
| N#Cc1cccc(-c2c(C(N)=O)c3n(c2Cl)CCNC3)c1 | 151 to 153 |
| Cc1nc(-c2ccc([N+](=O)[O-])cc2)c(-c2ccc([N+](=O)[O-])cc2)[nH]1 | 230 to 232 |
| Fc1ccc(Cn2c(NC3CCN(CCc4cccs4)CC3)nc3ccccc32)cc1 | 152 |
| COC(=O)c1cc(OC)c(C#N)c(OC)c1 | 151 to 153 |
| CCOCCS(=O)(=O)c1c(Cl)nc(Cl)nc1Cl | 133 to 134 |
| COc1ccc(N2CCN(c3c(C)c(C)c4c(c3C)C(c3ccc(Cl)cc3)C(C)(C)O4)CC2)cc1 (stereo unspecified) | 181 to 183 |
| COc1cc2c(cc1-c1c(C)nn(C)c1C)-c1c(-c3cccs3)c3c(n1CC2)C(=O)N(C(C)C)CCNC3 | 250 to 252 |
| O=C1C2C=CCCC2C(=O)N1CCO (stereo unspecified) | 48 to 51 |
| O=S1CCN(c2nc(N3CCOCC3)nc(-n3c(C(F)F)nc4ccccc43)n2)CC1 | 225 to 226 |
| CCOC(=O)c1c(C(F)(F)F)nc(C(F)(F)F)c(C)c1OC(C)=O | 49 to 51 |
| COc1cc(C=CC(=O)C=Cc2cc(OC)cc(OC)c2)cc(OC)c1 | 124 to 126 |
| Nc1ncc(Sc2ccc(F)cc2F)s1 | 116 to 117 |
| COC(=O)CNC(=O)CNC(=O)CNC(=O)OC(C)(C)C (Boc-Gly-Gly-Gly-OMe) | 122 to 128 |
| CCc1cccc(C)c1CNc1cc(CNC)cn2nc(C)nc12 | 179 |

The remaining lines, values ahead:

| melting point [°C] | Structure (SMILES) |
| --- | --- |
| 152 to 153 | COCn1c(=O)n(-c2ccc3c(c2)OCO3)c2ncccc21 |
| 123 to 125 | O=C(O)C1CC(=O)N(Cc2ccccc2)C1C(=O)N(Cc1ccccc1)Cc1ccccc1 (stereo unspecified) |
| 134 to 135 | COc1ccc(OCC(O)CN2CCC(c3noc4cc(F)ccc34)CC2)cc1 (stereo unspecified) |
| 121 to 122 | COc1ccc2c(c1)c(CC(=O)OCC(=O)O)c(C)n2C(=O)c1ccccc1C(F)(F)F |
| 98 to 100 | Cn1ncc(N2CCN(CC=Cc3ccccc3)CC2)c(Cl)c1=O |
| 146 | COc1ccc2ccc(N3C(=O)c4ccccc4C3OCC(=O)NCCN(C)C)nc2n1 (stereo unspecified) |
| 153 to 155 | CS(=O)(=O)NCCCCCCCCn1cnc2c(N)nc3ccccc3c21 |
| 156 to 157 | CCOc1nc2cccc(C(=O)O)c2n1Cc1ccc(-c2ccccc2-c2nc(=O)o[nH]2)cc1 |
| 80 to 83 | CCc1n[nH]c(CC)c1CCCCCOc1ccc(OC)cc1Cl |
| 77.5 to 78 | CCCn1c(-c2ccc3c(c2)OCO3)nc2ccccc21 |
| 215 to 216 | CN(C)c1ccc(NC(=O)C(C#N)C(=O)c2nn(-c3ccccc3)c3c2CSc2ccccc2-3)cc1 (stereo unspecified) |
| 35 to 41 | Fc1ccc(C=C(c2ccccc2)C(F)(F)F)cc1 |
| 90 to 96 | Nc1cc(Cl)cc(Cl)c1C(=O)NCc1ccccc1 |
| 119 to 122 | COc1ccccc1C(=O)c1cc([N+](=O)[O-])ccc1SC |
| 159 to 162 | CCOC(=O)c1cnc2c(NC(=O)c3c(Cl)cccc3Cl)cccc2c1C |
| 96.6 | OCc1cc(OCc2ccccc2)c(OCc2ccccc2)cn1 |
| 136 | CCCC1(c2ccccc2Cl)C(=O)Nc2ccc(OCC)cc21 (stereo unspecified) |
| 87 to 88 | CSC(C)(C(=O)O)c1cccc(Oc2ccccc2)c1 (stereo unspecified) |
| 189 to 190 | CC(C)n1c(CO)c(-c2ccc(F)cc2)c(-c2ccccc2)c1C(N)=O |

| melting point [°C] | Structure (SMILES) |
| --- | --- |
| 129 to 130 | COc1cc2c(cc1OCc1ccccc1)CCCC(=O)N2Cc1cc(OC)c(OC)c(OC)c1 |
| 143 to 144 | COc1cc2c(CCN3CCN(c4cccc(Cl)c4C)CC3)nn(Cc3c[nH]cn3)c2cc1OC |
| 74.5 to 75 | C=CCOc1ccc(C(=O)C=Cc2ccc(OC)cc2OC)cc1 |
| 154 to 155 | CS(=O)(=O)c1ccc(-n2nc(C(F)(F)F)cc2-c2ccc(-c3ccsc3)cc2)cc1 |
| 197 to 199 | Oc1cccc(C#Cc2ccc3ccc(Br)cc3n2)c1 |
| 182 to 184 | O=C1c2ccccc2C(=O)N1CCCC(=O)N1c2ccccc2N(Cc2ccccc2)C(=O)[C@H]2CCC[C@H]21 (relative stereo) |
| 181 to 182 | CCCOc1ccccc1-c1nc2nc(NCC)ncc2c(=O)[nH]1 |
| 304 | COc1cc(C2=C(c3c(-c4ccccc4)[nH]c4ccccc34)C(=O)NC2=O)cc(OC)c1OC |
| 92 to 93 | NS(=O)(=O)OCCOc1ccc(O)cc1 |
| 205 to 207 | Cc1c(-c2ccccc2Cl)n(-c2ccccc2Cl)c(-c2ccccc2Cl)cc1=O |
| 118 | O=[N+]([O-])c1ccc(C=Cc2ccc(OCCCCCCO)cc2)cc1 |
| 190 to 191 | O=C(Cn1c(-c2ccc(Cl)cc2)nc2cccnc21)Nc1ccccn1 |
| 130 to 131 | O=C1c2ccccc2C(=O)N1Cc1ccc(Br)nc1 |
| 245 | COc1ccc2[nH]c3cc(C(=O)OCc4ccccc4)c4c(c3c2c1)C(=O)NC4=O |
| 114 to 115 | Cc1c(O)cccc1C(=O)N[C@@H](Cc1ccccc1)[C@H](O)C(=O)N1CSC(C)(C)[C@H]1C(=O)N[C@@H](C)c1ccccc1 |
| 162 | COC(=O)c1ccc(C(=O)C2=C(C)C(=O)c3ccccc3C2=O)cc1 |
| 40 | CSc1cnc2ccccc2c1 |
| 156 to 158 | COc1cc(C2=CCN(S(=O)(=O)C(C)(C)C(=O)NO)CC2)ccc1-c1ccccc1 |
